Experimental findings from PMC11433764, “A Novel Compound from the Phenylsulfonylpiperazine Class: Evaluation of In Vitro Activity on Luminal Breast Cancer Cells” (Molecules, 2024) are described below.

Test [1] deals with KRT10. Description: qPCR, KRT10 expression in MCF7. The class given is cell-based. The settings on record: vs untreated cells. Here is the method:
(§1) Total RNA was extracted using Trizol reagent (Invitrogen), according to the manufacturer’s protocol. The quality of extracted RNA was verified by the spectrophotometric readings at 260 and 280 nm (Nanodrop 1000-ThermoFisher), and the first strand of cDNA was synthesized from 1 µg of total RNA via reverse transcription using GoScript™ Reverse Transcription Mix (Promega, Madison, WI, EUA). qPCR analysis was performed using 5.0 μL of Power SYBR Green PCR Master Mix (Applied Biosystems, Carlsbad, CA, USA) and run on a StepOnePlus Systems (Applied Biosystems, Carlsbad, CA, USA) device with the following cycling parameters: 40 cycles of 95 °C for 10 s and 60 °C for 30 s. The comparative Cq was used to find the relative expression of CDH1 (E-caderina), ENTPD1 (ectonucleoside triphosphate diphosphohydrolase 1), ENTPD2 (ectonucleoside triphosphate diphosphohydrolase 2), ENTPD3 (ectonucleoside triphosphate diphosphohydrolase 3), ENTPD5 ([…]) and KRT10 (keratin 10) genes, after relative standard curve optimization. β-2-microglobulin (β2M) was used as a reference gene. The primer sequences are described in Table 3.
(Real-time PCR tracks product formation cycle by cycle.)

Test [2] concerns ENTPD5. Description: qPCR, ENTPD5 expression in MCF7. The class given is cell-based. The note with it: vs untreated cells. The method, then:
as §1

A short description of test [3]: ABTS radical scavenging assay. The note with it: 40 µM (greatest activity among 10, 20, 40, 80 and 160 µM). Here is the method: The ABTS^+ radical cation scavenging efficacy for compound 3 was determined according to the method described earlier with some modifications. Briefly, an equal amount of 7 mM ABTS^+ (2,20-azino-bis(3-ethylbenzothiazoline-6-sulfonic acid)) stock solution was mixed and kept in the dark at room temperature for 12 h with a 140 mM potassium persulfate stock solution. The ABTS^+ was then diluted in ethanol until it reached a UV absorption value of 0.700 (±0.200) at 734 nm. Compound 3 (10, 20, 40, 80 and 160 µM) was mixed with ABTS^+ in 96-well plates, and absorbance was read at 415 nm using a microplate reader (Thermo Plate TP-Reader, ThermoFisher Scientific, Waltham, MA, USA). The scavenging capability of ABTS^+ radical was expressed as Trolox (0.1 to 2 mM) equivalents.

The test system of test [4] is ENTPD1. Description: qPCR, ENTPD1 expression in MCF7. It is filed as cell-based. The note with it: vs untreated cells. The method, then: as §1
Test [5] deals with MCF7. As to the kind of experiment: MTT cell viability, MCF7. The class given is cell-based. The settings on record: Homo sapiens, MCF7; 48 h, MTT, 1.25–160 μM; read-out: IC50 MCF7. The method, then:
Four different breast cells lines were used in this study: MCF-10A (non-tumorigenic), MCF7 (ER+ BC), MDA-MB453 (HER2+ BC) and MDA-MB231 (TNBC). All lineages were obtained from the American Type Culture Collection (ATCC; Manassas, VA, USA) and maintained at a temperature of 37 °C according to the supplier’s recommendations. Only MDA-MB231 cells were not kept in an atmosphere of 5% CO2. MCF-10A was grown in Dulbecco’s Modified Eagle’s Medium (DMEM F12, Gibco, ThermoFisher Scientific, Waltham, MA, USA) supplemented with 20 ng/mL epidermal growth factor (Gibco, ThermoFisher Scientific, Waltham, MA, USA), 0.5 μg/mL hydrocortisone (Sigma-Aldrich, Sigma-Aldrich, St. Louis, MO, USA) and 10 μg/mL insulin (Gibco, ThermoFisher Scientific, Waltham, MA, USA). MCF7 was cultivated in Roswell Park Memorial Institute Medium (RPMI-1640, Gibco, ThermoFisher Scientific, Waltham, MA, USA), MDA-MB453 in IMDM and MDA-MB231 in Leibovitz’s medium (L-15, Gibco, ThermoFisher Scientific, Waltham, MA, USA). All media were supplemented with 10% fetal bovine serum (FBS, Gibco, ThermoFisher Scientific, Waltham, MA, USA) and 50 µg/mL of gentamicin (Cultilab, Campinas, SP, Brazil). The cells were confirmed to be free of mycoplasma and passaged using a 0.25% trypsin-EDTA solution when confluency reached 80–90%.
Cell viability was determined by spectrophotometric quantification of MTT (3-[4,5-dimethyl-thiazol-2-yl]-2,5-diphenyltetrazolium bromide—Invitrogen. Waltham, MA, USA) reduction to formazan crystals. Cells were seeded at the density of 1 × 10^4 cells/well (MCF-10A, MDA-MB453), 1.5 × 10^4 cells/well (MDA-MB231) and 3 × 10^3 cells/well (MCF7) in 96-well culture dishes and incubated with different concentrations of the compounds (1.25, 2.5, 5, 10, 20, 40, 80 and 160 µM) for 48 h. The medium was than replaced by MTT solution (0.5 mg/mL) and plates were kept at 37 °C for 4 h. After the aspiration of the media, the formazan crystals were diluted with 100 μL of dimethyl-sulfoxide (DMSO)/well and the absorbance at 570 nm was measured using a spectrophotometer (Thermo Plate TP-Reader, Waltham, MA, USA). Cytotoxicity was calculated using the following formula: Cytotoxicity (%) = [absorbance of cells treated with the compounds/absorbance of cells treated with DMSO) × 100]. The IC50 was determined for each compound and was defined as the concentration required to inhibit 50% of cell growth, compared to the control sample (cells treated with DMSO 0.05%).
Data were presented as the mean ± standard deviation (SD) and analyzed using GraphPad Prism 9.0 software (GraphPad Software Inc., La Jolla, CA, USA). All data were assayed in triplicate. Statistical analysis was performed using one-way ANOVA, Tukey´s HSD post hoc test and Student’s t-test. The IC50 was calculated using non-linear regression and the selectivity index (SI) was calculated by the ratio between the IC50 values corresponding to the non-tumor cell lineage (MCF-10A) and the IC50 values corresponding to the BC cell lines. Statistical significance was accepted at p values < 0.05.

Test [6] deals with MCF7. Description: Clonogenic (colony formation) assay. The settings on record: MCF7, 9.00 µM (highest concentration), 48 h. It is filed as cell-based. The method, then: MCF7 cells were seeded at a density of 500 cells per well in 6-well culture. […] The medium was removed and, after 12 days, cells were washed 3 times with 1 × Phosphate-buffered saline (PBS), fixed with formaldehyde (4% v/v) and stained with crystal violet solution (0.5% v/v). Plates were scanned using L-Pix (Loccus Biotecnologia, Cotia, SP, Brazil) to obtain the images, incubated with 300 µL of acetic acid 33% v/v, and 100 µL of this solution was transferred to 96-well plates to evaluate the absorbance at 570 nm in a microplate reader (Thermo Plate TP-Reader, ThermoFisher). The number of colonies per well was calculated in relation to the untreated cells (considered as 100% of colony formation).

The structures appear in SMILES notation. Entries after “also recorded” stand apart in the source; their conditions may differ.

As a reminder, the IC50 is the concentration that gives 50% inhibition. For `O=C(c1ccc(-n2cnnn2)cc1)N1CCN(S(=O)(=O)c2ccc(Cl)cc2)CC1` [Compound 3, (4-(1H-tetrazol-1-yl)phenyl)(4-((4-chlorophenyl)sulfonyl)piperazin-1-yl)methanone], the “Fold Change KRT10 mRNA” value in test [1] (MCF7, 1.125 µM) was 1.309; in test [1] (MCF7, 2.25 µM), 1.913; in test [1] (MCF7, 4.5 µM), 1.383. Besides, the “Fold Change ENTPD5 mRNA” value amounted to 2.046 in test [2] (MCF7, 1.125 µM); 1.437 in test [2] (MCF7, 2.25 µM); 1.306 in test [2] (MCF7, 4.5 µM). In test [3], the “ABTS inhibition of free radicals” value is reported as 40%. Also, the “Fold Change ENTPD1 mRNA” value turned out to be 1.102 in test [4] (MCF7, 1.125 µM); 1.331 in test [4] (MCF7, 2.25 µM); 1.006 in test [4] (MCF7, 4.5 µM). For the same compound, in test [5], the IC50 stood at 4.48 µM. In addition, the Colony formation result in test [6] is “significantly reduced colony formation; also recorded: Colony formation was inhibited”.
